Measurements reported in patent US20120020958A1, “FIBCD1 FOR THE PREVENTION AND TREATMENT OF DISEASES” (Dansk Universitet, priority 2008, published 2012).
Read-outs that look alike come from different tables or passages of the source.

Assays:
FIBCD1 = molecular target: T1, FIBCD1 (Homo sapiens, UniProt Q8N539); test: ELISA binding of FIBCD1 to coated microtiter plates; details: for binding of FIBCD1 to coated substance: ELISA, microtiter plates coated with the substance; for substitution for calcium in binding to acetylated BSA: 5 mM MnCl2 or 5 mM MgCl2 instead of CaCl2
T1 construct: The V5-His tagged putative ectodomain of FIBCD1, encoding amino acid 54-461, was generated by PCR; made in house; host or cells: HEK293 (Flp-In T-REx), secreted via pSecTag/FRT/V5-His TOPO vector
T1 sequence (Q8N539 54-461): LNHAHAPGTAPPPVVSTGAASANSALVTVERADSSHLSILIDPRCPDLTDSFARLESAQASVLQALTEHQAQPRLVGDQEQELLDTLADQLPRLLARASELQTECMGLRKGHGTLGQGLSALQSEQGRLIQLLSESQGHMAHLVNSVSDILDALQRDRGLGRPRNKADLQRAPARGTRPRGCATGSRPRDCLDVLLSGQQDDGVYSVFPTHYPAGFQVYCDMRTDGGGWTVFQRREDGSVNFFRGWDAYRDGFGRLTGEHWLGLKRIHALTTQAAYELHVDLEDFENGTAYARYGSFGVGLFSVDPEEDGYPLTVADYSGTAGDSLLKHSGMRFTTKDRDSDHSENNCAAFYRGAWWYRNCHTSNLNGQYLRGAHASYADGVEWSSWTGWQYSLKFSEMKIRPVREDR
Protocol: (A) SDS-PAGE and Western blotting analysis of culture supernatant from HEK293 cells expression FIBCD1 in the non-reduced (lane 1) and reduced (lane 2) state developed with the monoclonal rat anti-FIBCD1 (HG-HYB-12-2). […] (D) Silver stained SDS-PAGE of fractions from (E) in the reduced and unreduced state. (E) Microtiterplates were coated with BSA or NAc-BSA and increasing amounts of FIBCD1 was added in the presence 5 mM CaCl2 or 10 mM EDTA. (F) Microtiterplates were coated with NAc-BSA and 100 ng/ml and FIBCD1 was added in the presence 0-1 mM CaCl2. (G) Microtiterplates were coated with NAc-BSA and increasing amounts of FIBCD1 was added in the presence 5 mM CaCl2, 5 mM MgCl2 or 5 mM MnCl2.
(A) Microtiter plates were coated with LPS 055, LPS 0111 LPS 026 or NAc-BSA. (B) Microtiterplates were coated with LTA, mannan, peptidoglycan or NAc-BSA and increasing concentrations of FIBCD1 was added. (C) Pull-down assays where 20 μg of the FIBCD1 (the FReD of FIBCD1) or as a positive control 20 μg of wheat germ agglutinin (WGA) was added to 2 mg insoluble chitin, cellulose, zymozane or beta-glucan. […] BSA was used as control. Pellet fractions were analyzed by SDS-PAGE and Coomassie blue staining.
(§1) An ELISA system was used to evaluate the ability of various acetylated and nonacetylated compounds to inhibit the binding between FIBCD1 ectodomain and acetylated BSA (Sigma). Microtiter plates (NUNC Maxisorp, Denmark) were coated with acetylated BSA (Sigma) or BSA (Sigma) and blocked with TBS/Tw before being incubated with FIBCD1 ectodomain samples diluted in TBS/Tw (5 mM CaCl2). The binding between FIBCD1 and acetylated BSA was also tested in the presence of 10 mM EDTA, 5 mM MnCl2 or 5 mM MgCl2 instead of CaCl2. After incubation overnight at 4° C. and washing, the wells were incubated for 2 h at room temperature with chicken anti-FIBCD1 antibodies diluted 1:1000 in TBS/Tw (5 mM CaCl2). The plates were washed with TBS/Tw (5 mM CaCl2) and incubated for 1 h with alcalic phosphatase-labelled anti-chicken IgY (whole molecule) (Sigma-Aldrich) diluted 1:1500 in TBS/Tw (5 mM CaCl2) followed by washing and developed with 1 mg/ml para-nitrophenylphosphate, disodium salt (PNPP) (Boehringer Mannheim, Germany) in substrate buffer.

FIBCD1 ectodomain = molecular target: T2, FIBCD1 ectodomain (Homo sapiens, UniProt Q8N539); test: ELISA inhibition of binding between FIBCD1 ectodomain and acetylated BSA; details: for inhibition of binding of FIBCD1 to acetylated BSA: at a concentration of 50 mM; for I50 relative (relative inhibitor potential): I50 of the best inhibitor divided by I50 of the compound; for IC50: read-out: I50 of the binding between FIBCD1 and acetylated BSA
T2 construct: The V5-His tagged putative ectodomain of FIBCD1, encoding amino acid 54-461, was generated by PCR; made in house; host or cells: HEK293 (Flp-In T-REx), secreted via pSecTag/FRT/V5-His TOPO vector
T2 sequence (Q8N539 54-461): T1 sequence (Q8N539 54-461)
Protocol: The ligand selectivity of FIBCD1 was investigated by inhibiting the binding of FIBCD1 ectodomain to acetylated BSA coated microtiter plates (FIG. 2G, Table 1).
as §1
The mixtures were incubated overnight in the acetylated BSA coated wells overnight at 4° C. and processed as described above.

[1] = system: CHO cells transfected with FIBCD1 cDNA; test: FIBCD1-mediated endocytosis of acetylated BSA in CHO cells; type: cell-based, Chinese hamster; details: for uptake and degradation of 125I labelled acetylated BSA: GlcNAc at 10 mM
Protocol: Degradation was measured, as the cell-mediated increase in of TCA-soluble radioactivity in the growth medium and cell-associated was determined by counting the radioactivity of the cell lysate. (A) CHO cells and (B) CHO/FIBCD1 cells. (C) Effect of lysosomal inhibitors chloroquine and leupeptin (both 100 μM) on endocytosis of NAc-BSA. Values are mean+/−1 SD of triplicate samples. […] Fluorescence microscopy of CHO-FReD (E) and CHO (F) after incubation with Alexa488 acetylated BSA.

[2] = 100 ng/ml FIBCD1 ectodomain, 5 mM CaCl2, N.I. = less than 50% inhibition at 50 mM

[Ca+2].[Cl-].[Cl-] [calcium, calcium chloride]
calcium concentration for optimum binding to acetylated BSA (FIBCD1; 100 ng/ml FIBCD1, 0-1 mM CaCl2): 0.6 mM

N[C@H]1C(O)O[C@H](CO)[C@@H](O)[C@@H]1O (some centres unmarked) [Glucosamine, glucosamine, reference compound]
I50 of the binding between FIBCD1 and acetylated BSA (FIBCD1 ectodomain; [2]): N.I.

CCCC(=O)[O-].[Na+] [Butyrate, sodium butyrate, reference compound]
I50 of the binding between FIBCD1 and acetylated BSA (FIBCD1 ectodomain; [2]): N.I. | inhibition of binding of FIBCD1 to acetylated BSA (FIBCD1 ectodomain): did not inhibit

mannan
binding of FIBCD1 to coated substance (FIBCD1): no binding

CC(=O)N[C@@H](C)C(=O)O [N-acetylalanine]
I50 relative (relative inhibitor potential) (FIBCD1 ectodomain): 0.5 | IC50 (FIBCD1 ectodomain): 4 mM

[Mn+2] [manganese]
substitution for calcium in binding to acetylated BSA (FIBCD1): could substitute for calcium

^125I-labeled NAc-BSA: acetylated BSA labelled with 125I using the chloroamine-T method
time at which cell-associated radioactivity reached a plateau ([1]; CHO/FIBCD1 cells, 37° C.): one | uptake in non-transfected CHO cells [1]: no uptake

O=C[C@H](O)[C@@H](O)[C@@H](O)[C@H](O)CO [Galactose, galactose, reference compound]
I50 of the binding between FIBCD1 and acetylated BSA (FIBCD1 ectodomain; [2]): N.I.

C[C@H](N)C(=O)O [Alanine, L-alanine, reference compound]
I50 of the binding between FIBCD1 and acetylated BSA (FIBCD1 ectodomain; [2]): N.I.

CC(=O)OCC[N+](C)(C)C [Acetylcholine, acetyl cholin]
IC50 (FIBCD1 ectodomain): 10 mM

CC(=O)N[C@H]1[C@H]([C@H](O)[C@H](O)CO)OC(O)(C(=O)O)C[C@@H]1O (some centres unmarked) [Sialic acid, N-acetylneuraminic acid]
I50 relative (relative inhibitor potential) (FIBCD1 ectodomain): 1 | IC50 (FIBCD1 ectodomain): 2 mM

CC(=O)N[C@@H]1C(O)O[C@H](CO)[C@@H](O)[C@@H]1O (some centres unmarked) [N-acetylmannoseamine, N-acetyl mannosamine]
I50 relative (relative inhibitor potential) (FIBCD1 ectodomain): 1 | IC50 (FIBCD1 ectodomain): 2 mM

N-acetyl bovine serum albumin [NAc-BSA]
uptake and degradation of 125I labelled acetylated BSA ([1]; CHO/FIBCD1 cells): inhibited | binding of FIBCD1 to coated substance (FIBCD1): binding | binding of FIBCD1 to coated substance (FIBCD1; listed as acetylated BSA): bound

N[C@@H]1C(O)O[C@H](CO)[C@@H](O)[C@@H]1O (some centres unmarked) [Mannosamine, mannosamine, reference compound]
I50 of the binding between FIBCD1 and acetylated BSA (FIBCD1 ectodomain; [2]): N.I.

N[C@H]1C(O)O[C@H](CO)[C@H](O)[C@@H]1O (some centres unmarked) [Galactoseamin, galactosamine, reference compound]
I50 of the binding between FIBCD1 and acetylated BSA (FIBCD1 ectodomain; [2]): N.I.

Alexa488 labelled acetylated BSA: acetylated BSA coupled with Alexa Fluor 488 C5 maleimide
uptake in CHO cells transfected with FIBCD1 cDNA ([1]; fluorescence microscopy): mediate uptake | uptake in non-transfected CHO cells [1]: no uptake

CCC(=O)[O-].[Na+] [Propionate, sodium propionate, reference compound]
I50 of the binding between FIBCD1 and acetylated BSA (FIBCD1 ectodomain; [2]): N.I. | inhibition of binding of FIBCD1 to acetylated BSA (FIBCD1 ectodomain): did not inhibit

CC(=O)N[C@@H]1[C@@H](O)[C@@H](O)[C@@H](CO)O[C@@H]1O [N-acetylgalactoseamine]
IC50 (FIBCD1 ectodomain; [2]): 5 mM | I50 relative (relative inhibitor potential) (FIBCD1 ectodomain): 0.4

lipopolysaccharide [LPS]
binding of FIBCD1 to coated substance (FIBCD1): no binding

[Mg] [magnesium]
substitution for calcium in binding to acetylated BSA (FIBCD1): could not

CC(=O)N[C@H]1C(O)O[C@H](CO)[C@@H](O)[C@@H]1O (some centres unmarked) [N-acetylglucosamine, N-acetyl glucosamine]
uptake and degradation of 125I labelled acetylated BSA ([1]; CHO/FIBCD1 cells): inhibited | I50 relative (relative inhibitor potential) (FIBCD1 ectodomain): 0.5 | IC50 (FIBCD1 ectodomain): 4 mM

peptidoglycan
binding of FIBCD1 to coated substance (FIBCD1): no binding

lipoteichoid acid [LTA]
binding of FIBCD1 to coated substance (FIBCD1): no binding
